The values that follow come from patent publication US6156744A, “DT-diaphorase directed anti-tumor agents” (Cancer Research Campaign Tech (London), priority 1999, dated 2000).

Like-named read-outs stand apart in the source and are kept apart here. Some results are limits rather than exact numbers.

For series [1], the system named is CHO cell lines stably transfected with human DTD. To be noted: Gustafson et al. 1996; cited from earlier work.
The conditions of series [2]: cited from earlier work.
Series [3] concerns DTD. To be noted: cited from earlier work; for pH dependence of metabolism by DTD / Substrate quality for DTD: literature.
Series [4] concerns spheroid. To be noted: literature; cited from earlier work.
In series [5] the test system is DNA. The following applies: Lee et al. 1992; cited from earlier work.
In series [6] the test system is cells under hypoxic conditions. To be noted: hypoxic vs aerobic; cited from earlier work.
Series [7] relates to 69 human tumor cell lines. The following applies: p<0.016; cited from earlier work.
Series [8] relates to DNA. To be noted: literature; cited from earlier work.
Series [9] concerns BE human colon carcinoma cells and H460 human non-small cell lung cancer cells. Kind of series: MTT cytotoxicity, continuous four day exposure, BE versus H460 (FIG. 2). The following applies: four days, 5760 min. Type of series: cell-based. The method, then: (§1) The cell line BE is a human colon carcinoma that is described in Day et al., Carcinogenesis 1 :21-32 (1980).
The cytotoxicity of RH1 and MeDZQ to BE human colon carcinoma cells and H460 human non small cell lung cancer cells was determined. BE cells are DT-diaphorase null due to a mutation in the DT-diaphorase gene, while H460 cells have elevated DT-diaphorase levels (Traver et al., (1997) supra.). Cytotoxicity was determined using the MTT assay and cells were exposed to drug continuously throughout the four day assay.

For series [10] the following is noted: Beall et al. 1994, 1995; cited from earlier work.
Series [11] concerns the target human recombinant DT-diaphorase (Homo sapiens, UniProt P15559). Kind of series: NADH removal and quinone removal by recombinant human DT-diaphorase, HPLC. To be noted: for NADH Removal / Quinone Removal: 0.05 mM quinone, 10-100 ng/ml rhDT-diaphorase, 0.2 mM NADH, 25 mM Tris pH 7.4, n=3. Type of series: biochemical. The method, then: The relative abilities of MeDZQ and RH1 to serve as substrates for human recombinant DT-diaphorase were determined. Both quinones (0.05 mM) were incubated with 10-100 ng/ml recombinant human DT-diaphorase and NADH (0.2 mM) in 25 mM Tris buffer, pH 7.4, containing 1 mM DETAPAC. NADH removal was measured by HPLC as described in Beall et al., (1995), supra.

Series [12] relates to H460 and H596 cells. To be noted: Ross et al. 1993; cited from earlier work.
Series [13] relates to NSCLC xenografts. The following applies: cited from earlier work.
The subject of series [14] is NSCLC and breast cancer cell lines. The following applies: Beall et al. 1995; cited from earlier work.
Series [15] deals with H596 and H460 cells. The series can be described thus: MTT continuous challenge cytotoxicity, ratio H596/H460. The class given is cell-based, human. The following applies: ratio of cytotoxicities, five days, 7200 min. As for the experimental part: (§2) The cell lines used in this work were HT29, H460, H596, BE. These were obtained from the ATCC or from the European Collection for Animal Cell Cultures, ECACC. HT29 is a human colon cancer cell line and H460 is a human large cell lung carcinoma cell line. These two cell lines were used as they express relatively high levels of DTD. […] Continuous challenge cytotoxicity studies were carried out on these cells (600 per well) in 96 well plates using the MTT method. After five days, the absorbances were read on a multiscan plate reader at 540 and 640nm. Plots were then drawn for inhibition of cell growth as a function concentration. Each compound was tested in triplicate at each concentration on at least two occasions.

The subject of series [16] is BE and HT-29 cells. The series can be described thus: MTT continuous challenge cytotoxicity, ratio BE/HT-29. The class given is cell-based, human. To be noted: ratio of cytotoxicities, five days, 7200 min. As for the experimental part:
as §2

The conditions of series [17]: Bibby et al. 1993; cited from earlier work.
The test system of series [18] is DTD-rich cell lines. The following applies: literature; cited from earlier work.
Series [19] concerns CHO812 and CHOglyA cells. Kind of series: Cytotoxicity of RH1 to CHOglyA and DTD-transfected CHO812 cells (FIG. 3). The class given is cell-based, chinese hamster. As for the experimental part:
as §1
Further studies were conducted to determine the cytotoxicity of RH1 to CHOglyA and CHO812 cells. CHOglyA cells have non detectable levels of DT-diaphorase, whereas CHO812 cells have elevated levels of DT-diaphorase as reported in Gustafson et al., (1996) supra. The original CHO cell lines were obtained from the American Type Culture Collection, Rockville, Md.

The nature of series [20]: Half-life in pharmacokinetics. The following applies: attributed to free hydroxyl group / water solubility.
The nature of series [21]: Stability of RH1 in phosphate buffer. Type of series: physicochemical. As for the experimental part: (§3) RH1 is easily synthesized with very high purity (>99%). […] The RH1 solutions are very stable with a half life of RH1 in phosphate buffer (0.1 M, pH=7) of more than 2 days at 25° C.
Series [22] deals with H460 and H596 human non-small cell lung cancer cells. The series can be described thus: MTT cytotoxicity, 2 hour exposure, H460 versus H596 cells (FIG. 1). Type of series: cell-based. As for the experimental part:
FIG. 1 compares the cytotoxicity of RH1 in human non small cell lung tumor cell lines with elevated DTD activity (H460) and those with no detectable DTD activity (H596). RH1 was 350 fold more toxic to tumor cells with elevated DTD activity than to DTD null cells.
Studies were conducted to determine the cytotoxicity of RH1 against human non small cell lung cancer cell lines. H596 cells are DT-diaphorase null due to a mutation in the DT-diaphorase gene, while H460 cells have elevated DT-diaphorase levels as described in Beall et al., (1995) supra and Traver et al., Br. J. Cancer, 75:69-75 (1997). The cell lines H460 and H596 are available from the American Tissue Type Culture Collection (ATCC), Rockville, Md. Cytotoxicity was determined after a 2 hour drug exposure in serumless medium using the MTT assay as described in detail in Beall et al., (1995), supra.

Series [23] is described as follows: Solubility in aqueous solution. The class given is physicochemical. To be noted: phosphate buffered saline; 25° C. As for the experimental part: as §3
For series [24], the system named is DNA. Kind of series: DNA crosslinking sequence specificity. The class given is biochemical.

Sequence of human recombinant DT-diaphorase (P15559 whole entry): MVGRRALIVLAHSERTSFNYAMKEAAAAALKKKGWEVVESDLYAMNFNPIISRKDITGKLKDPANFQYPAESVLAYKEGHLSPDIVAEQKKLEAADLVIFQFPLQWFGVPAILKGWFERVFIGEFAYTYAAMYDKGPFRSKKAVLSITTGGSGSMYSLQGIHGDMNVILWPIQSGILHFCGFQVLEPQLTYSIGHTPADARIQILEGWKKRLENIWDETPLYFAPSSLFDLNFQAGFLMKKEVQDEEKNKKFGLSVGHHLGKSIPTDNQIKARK

The term solubility denotes the dissolved amount per volume that the medium holds. Take `CC1=C(N2CC2)C(=O)C(C)=C(N2CC2)C1=O` [MeDZQ, 2,5-diaziridinyl-3,6-dimethyl-1,4-benzoquinone]: in [1], the “Cytotoxicity as a result of transfecting DTD into CHO cells” value is “markedly increased”. Besides, the “solubility” value in series [2] is recorded as “poor solubility”. The “Effectiveness as a substrate for recombinant human DTD relative to mitomycin C” value in [3] (Beall et al. 1994, Ross et al. 1994) is listed as “greater than 150 fold”. In addition, in series [3], the “Inhibition / inactivation of DTD at higher pHs” value is reported as “does not inactivate DTD at higher pHs” and the “pH dependence of metabolism by DTD” value is reported as “pH-independent”. The “Activity / cytotoxicity in spheroid studies” value in series [4] is on record as “increased cytotoxicity”. In addition, the DNA crosslinking sequence result in [5] is given as “GNC sequences”. In addition, in series [6], the “Increase in cytotoxicity under hypoxic relative to aerobic conditions” value was “very modest increase in cytotoxicity”. In addition, in series [7], the “Correlation (r) between DTD activity and cytotoxicity” value is given as 0.3033. Besides, the “DNA damage after reduction (crosslinks, strand breaks)” value (“DNA damage after reduction” for short) in series [8] is on record as “absolute requirement for reduction of the drug”. Besides, the “Ratio of cytotoxicities of IC50, BE (no DTD activity) to H460 (elevated DTD activity)” value in series [9] came to 33. Moreover, in series [10], the “Stability of reactive hydroquinone metabolite” value is reported as “appreciable stability”. In [11], the “NADH Removal” value is reported as 21.6 ± 4.0 and the “Quinone Removal” value worked out at 9.7 ± 2.2. Moreover, in series [12], the “Cytotoxicity to H596 and H460 cells in comparison to RH1” value was “less cytotoxic to both H596 and H460 cells”; the “Differential toxicity to H460 cells (versus H596)” value is on record as 17 fold. The “Relationship between levels of reducing enzymes and efficacy in NSCLC xenografts” value in [13] (in vivo) was “confirmed the relationship between the levels of reducing enzymes and the efficacy”. Further, in [14], the “Correlation between DTD levels and cytotoxicity” value was “good correlation”.
With `CO[C@@]12[C@H](COC(N)=O)C3=C(C(=O)C(C)=C(N)C3=O)N1C[C@@H]1N[C@@H]12` [mitomycin C], in [3], the “Inhibition / inactivation of DTD at higher pHs” value was “pH-dependent inhibition of DTD at higher pHs”, the “Substrate quality for DTD” value is reported as “very poor substrate for DTD” and the “pH dependence of metabolism by DTD” value is on record as “pH-dependent”. Besides, in [13] (literature), the “Susceptibility of NSCLC xenografts with high DTD activity versus SCLC xenografts with low DTD activity” value is “more susceptible”.
Take `CC(=O)OCC1=C(N2CC2)C(=O)C(C)=C(N2CC2)C1=O` [Acetyl-, 2-Acetoxymethyl-3,6-diaziridinyl-5-methyl-1,4-benzoquinone]: the H596/H460 in series [15] turned out to be 4.7. Further, in series [16], the BE/HT-29 came out at 5.2.
For the compound `Cn1c(/C=C/CO)c(CO)c2c1C(=O)C=C(N1CC1)C2=O` [E09], the “Substrate quality for DTD” value in series [3] was “efficiently reduced by DTD”. The “Activity / cytotoxicity in spheroid studies” value in series [4] is listed as “not active”. The “Ability to penetrate cells and cross cellular membranes” value in [17] is “poor ability”. In addition, the “DNA damage after reduction” value in series [8] is recorded as “exclusively form DNA strand breaks”.
With `CCOC(=O)NC1=C(N2CC2)C(=O)C(NC(=O)OCC)=C(N2CC2)C1=O` [AZQ, Diaziquone], in series [3], the “Substrate quality for DTD” value is on record as “extremely poor substrate for DTD”. Moreover, in [8], the “DNA damage after reduction” value is “does not readily form DNA crosslinks after reduction by DTD”. In series [18], the “Selectivity for DTD-rich cell lines” value is “failed to show any selectivity for DTD-rich cell lines”.
As usually defined, the half-life is the time needed for the level to fall by half in the phase considered. High values mean slow loss, low ones fast loss. As for `CC1=C(N2CC2)C(=O)C(CO)=C(N2CC2)C1=O` [RH1, 2,5-diaziridinyl-3-(hydroxymethyl)-6-methyl-1,4-benzoquinone], the “Susceptibility of CHO-812 (DTD overexpressing) to cell killing relative to parent CHO-glyA” value in [19] was “more susceptible”. Further, in series [20], the Half-life in pharmacokinetics result is on record as “shorter half-life in pharmacokinetics”. Moreover, the “Stability of solutions” value in series [21] is “very stable”. For the same compound, in series [21] (0.1 m phosphate buffer, 0.1 M, pH=7, 25° C.), the half-life is greater than 48 h. In addition, in [22], the “Cytotoxicity to tumor cell lines with elevated DTD activity, compared with MeDZQ” value is listed as “more cytotoxic to tumor cell lines with elevated DTD activity” and the “Selective killing of DTD-rich cells” value is on record as “selectively kills cells rich in DTD”. For the same compound, the “Fold toxicity to tumor cells with elevated DTD activity (H460) relative to DTD null cells (H596)” value in series [22] (2 hour exposure, MTT, FIG. 1) is listed as 350 fold. The H596/H460 in [15] is on record as 41. The “Ratio of cytotoxicities of IC50, BE (no DTD activity) to H460 (elevated DTD activity)” value in series [9] is reported as 51. Further, in series [11], the “NADH Removal” value is 45.2 ± 6.3 and the “Quinone Removal” value is 28.2 ± 4.2. Moreover, the “Effectiveness as a substrate for DT-diaphorase, compared with MeDZQ” value in series [11] (Example 2) is recorded as “more effective as a substrate for DT-diaphorase than MeDZQ”. In series [23], this compound came in with a solubility greater than 500 µg/mL. For the same compound, in series [24], the DNA crosslinking sequence entry is on record as “GCC sequences”. For the same compound, the BE/HT-29 in series [16] is 17.5.
For `CC1=C(N2CC2)C(=O)C(COC(=O)c2ccccc2)=C(N2CC2)C1=O` [Benzoyl, benzoyl ester of RH1], in [15], the H596/H460 came to 4. Also, the BE/HT-29 in series [16] is reported as 0.1.
